The source of these data is patent US7635706B2, “5HT4-antagonistic 4-(aminomethyl)-piperidine benzamides” (Janssen Pharmaceutica NV, priority 2003, dated 2009).

The target of the assay is T1, h5-HT4b (Homo sapiens, UniProt Q13639).
T1 construct: expressed in transfected cells; host or cells: HEK 293 (clone 9), membrane preparation
T1 sequence (Q13639 whole entry): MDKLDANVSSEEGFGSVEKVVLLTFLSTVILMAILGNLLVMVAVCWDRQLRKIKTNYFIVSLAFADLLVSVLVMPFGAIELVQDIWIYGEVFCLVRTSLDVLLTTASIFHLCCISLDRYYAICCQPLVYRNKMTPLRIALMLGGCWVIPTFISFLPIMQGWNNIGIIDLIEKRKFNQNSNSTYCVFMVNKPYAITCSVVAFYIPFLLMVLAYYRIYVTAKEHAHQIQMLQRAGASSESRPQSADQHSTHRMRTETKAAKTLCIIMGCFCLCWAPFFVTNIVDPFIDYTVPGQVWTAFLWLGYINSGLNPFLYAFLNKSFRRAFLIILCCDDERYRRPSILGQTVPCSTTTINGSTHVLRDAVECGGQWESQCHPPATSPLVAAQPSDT
In words: 5HT4 antagonism: [3H]GR113808 binding to membranes of h5-HT4b-HEK 293 clone 9 cells. As to conditions: [3H]GR113808 0.1 nM, h5-HT4b-HEK 293 membranes, 30 min at 25° C. As for the experimental part:
h5-HT4b-HEK 293 clone 9 cells were cultured in 150 mm Petri dishes and washed twice with cold PBS. The cells were then scraped from the plates and suspended in 50 mM Tris-HCl buffer, pH 7.4 and harvested by centrifugation at 23,500 rpm for 10 minutes. The pellet was resuspended in 5 mM Tris-HCl, pH 7.4 and homogenized with an Ultra Turrax homogenizer. The membranes were collected by centrifugation at 30,000 rpm for 20 min, resuspended in 50 mM Tris-HCl pH 7.4 and stored at −80° C. For the experiment, assay mixtures (0.5 ml) contained 50 μl of the tritiated ligand (5-HT4 antagonist [^3H]GR113808 0.1 nM) and 0.4 ml membrane preparation (15 μg protein/ml). 50 μl of 10% DMSO was added for total binding. 50 μl of 1 μM of (+)-trans-(1-butyl-3-hydroxy4-piperidinyl)methyl 8-amino-7-chloro-2,3-dihydro-1,4-benzodioxin-5-carboxylate (a proprietary 5HT4 agonist of Janssen Pharmaceutica) was added for determination of non-specific binding.
The [^3H]GR113808 assay buffer was 50 mM HEPES-NaOH, pH 7.4. The mixtures were incubated for 30 min at 25° C. The incubation was terminated by filtration over a Unifilter 96 GF/B presoaked in 0.1% polyethylenimine, followed by six washing steps with 50 mM HEPES-NaOH, pH 7.4.
Consider `Cc1ccc(C(=O)NC[C@@H]2CCN(CCCO)C[C@H]2O)c2c1OCCCO2` [compound 3], for which the IC50 was 1.7 nM. This counts as single-digit nanomolar.

In turn, `CNCCCCN1CC[C@@H](CNC(=O)c2ccc(C)c3c2OCCCO3)[C@H](O)C1` [compound 4] showed an IC50 of 6.92 nM.

As for `COc1c(Cl)cc(C(=O)NC[C@@H]2CCN(CCCO)C[C@H]2O)c2c1OCCO2` [compound 5], the IC50 is 5.5 nM.

As to `COCCCN1CC[C@@H](CNC(=O)c2cc(Cl)c(OC)c3c2OCCO3)[C@H](O)C1` [compound 6], the IC50 is 6.46 nM.

Consider `COc1c(Cl)cc(C(=O)NC[C@@H]2CCNC[C@H]2O)c2c1OCCO2` [compound 8], for which the concentration for half-maximal inhibition (IC50) was 77.6 nM.

Compound `COc1c(Cl)cc(C(=O)NC[C@@H]2CCN(CC3OCCO3)C[C@H]2O)c2c1OCCO2` [compound 9] had an IC50 of 7.94 nM.

Compound `N#CCCCN1CC[C@@H](CNC(=O)c2cc(Cl)c(Br)c3c2OCCCO3)[C@H](O)C1` [compound 10] showed an IC50 of 3.02 nM.

Compound `O=C(NC[C@@H]1CCNC[C@H]1O)c1cc(Cl)c(Br)c2c1OCCCO2` [compound 11] had a concentration for half-maximal inhibition (IC50) of 5.89 nM.

In turn, `COc1c(Cl)cc(C(=O)NC[C@@H]2CCNC[C@H]2O)c2c1OCCCO2` [compound 12] had an IC50 of 43.7 nM.

For `COc1c(Cl)cc(C(=O)NC[C@@H]2CCN(CCCO)C[C@H]2O)c2c1OCCCO2` [compound 13], the IC50 was 5.37 nM.

Take `COCCCN1CC[C@@H](CNC(=O)c2cc(Cl)c(OC)c3c2OCCCO3)[C@H](O)C1` [compound 14]: the IC50 was 2.63 nM.

With `COc1c(Cl)cc(C(=O)NC[C@@H]2CCN(CCOCCO)C[C@H]2O)c2c1OCCO2` [compound 15], the IC50 is 9.55 nM.

`CCCCN1CC[C@@H](CNC(=O)c2cc(Cl)c(OC)c3c2OCCCO3)[C@H](O)C1` [compound 17] had an IC50 of 3.8 nM. Against the preceding compound, the IC50 is about 2.5-fold lower.

`COc1c(Cl)cc(C(=O)NC[C@@H]2CCN(CC3OCCO3)C[C@H]2O)c2c1OCCCO2` [compound 18] showed an IC50 of 24 nM.

As to `O=C(NC[C@@H]1CCN(CCCO)C[C@H]1O)c1cc(Cl)c(Cl)c2c1OCCCO2` [compound 19], the IC50 was 2.69 nM.

`O=C(NC[C@@H]1CCNC[C@H]1O)c1cc(Cl)c(Cl)c2c1OCCCO2` [compound 20] showed an IC50 of 3.63 nM.

`O=C(NC[C@@H]1CCN(CCOCCO)C[C@H]1O)c1cc(Cl)c(Cl)c2c1OCCCO2` [compound 21] had an IC50 of 3.89 nM.

`CCCCN1CC[C@@H](CNC(=O)c2cc(Cl)c(Br)c3c2OCCCO3)[C@H](O)C1` [compound 22] gave an IC50 of 1.41 nM.

Turning to `COc1c(Cl)cc(C(=O)NC[C@@H]2CCN(CCOCCO)C[C@H]2O)c2c1OCCCO2` [compound 23], the IC50 was 17.4 nM. Compared with the last compound, the IC50 is about 12-fold higher.

Regarding `O=C(NC[C@@H]1CCN(CCCO)C[C@H]1O)c1cc(Cl)c(Br)c2c1OCCCO2` [compound 24], the IC50 is 1.78 nM.

In turn, `O=C(NC[C@@H]1CCN(CCOCCO)C[C@H]1O)c1cc(Cl)c(Br)c2c1OCCCO2` [compound 25] showed an IC50 of 3.09 nM. Against the preceding compound, the IC50 is about 1.7-fold higher.

The compound `O=C(NC[C@@H]1CCN(CC2OCCO2)C[C@H]1O)c1cc(Cl)c(Br)c2c1OCCCO2` [compound 26] had an IC50 of 6.31 nM.

Compound `O=C(NC[C@@H]1CCN(CCC2OCCO2)C[C@H]1O)c1cc(Cl)c(Br)c2c1OCCCO2` [compound 27] had an IC50 of 4.9 nM.

Compound `CO[C@@H]1CN(CCCC#N)CC[C@H]1CNC(=O)c1cc(Cl)c(Br)c2c1OCCCO2` [compound 28] had an IC50 of 6.31 nM.

Take `COc1c(Cl)cc(C(=O)NC[C@@H]2CCN(CCC3OCCO3)C[C@H]2O)c2c1OCCCO2` [compound 29]: the IC50 was 6.46 nM.

In turn, `COc1c(Cl)cc(C(=O)NC[C@@H]2CCN(CCCC#N)C[C@H]2O)c2c1OCCO2` [compound 30] had an IC50 of 12.6 nM.

The compound `COc1c(Cl)cc(C(=O)NC[C@@H]2CCN(CCC3OCCO3)C[C@H]2O)c2c1OCCO2` [compound 31] showed a 50% inhibitory concentration (IC50) of 7.08 nM.

Compound `COc1c(Cl)cc(C(=O)NC[C@@H]2CCN(CC3CCCO3)C[C@H]2O)c2c1OCCO2` (stereo partly shown) [compound 32] had an IC50 of 8.71 nM.

Compound `COc1c(Cl)cc(C(=O)NC[C@@H]2CCN(CC3CCCO3)C[C@H]2O)c2c1OCCCO2` (stereo partly shown) [compound 33] had an IC50 of 1.2 nM. This IC50 lies about 7.3-fold lower than the previous one.

In the case of `COc1c(Cl)cc(C(=O)NC[C@@H]2CCN(CCCC#N)C[C@H]2O)c2c1OCCCO2` [compound 34], the IC50 is 1 nM.

`CO[C@@H]1CNCC[C@H]1CNC(=O)c1cc(Cl)c(Br)c2c1OCCCO2` [compound 35]: the IC50 is 23.4 nM.

The compound `CNCCCN1CC[C@@H](CNC(=O)c2cc(Cl)c(OC)c3c2OCCCO3)[C@H](O)C1` [compound 36] gave an IC50 of 38 nM. This IC50 lies about 1.6-fold higher than the previous one.

The compound `COCCCN1CC[C@@H](CNC(=O)c2cc(Cl)c(Cl)c3c2OCCCO3)[C@H](O)C1` [compound 37] showed a 50% inhibitory concentration (IC50) of 3.89 nM.

For `COCCCN1CC[C@@H](CNC(=O)c2cc(Cl)c(Br)c3c2OCCCO3)[C@H](O)C1` [compound 38], the IC50 is 2.95 nM.

On to `O=C(NC[C@@H]1CCN(CC2CCCO2)C[C@H]1O)c1cc(Cl)c(Br)c2c1OCCCO2` (stereo partly shown) [compound 39], for which the IC50 was 3.89 nM. This IC50 and that of the compound before are within 1.5-fold of each other.

For `CNCCCCN1CC[C@@H](CNC(=O)c2cc(Cl)c(OC)c3c2OCCCO3)[C@H](O)C1` [compound 40], the IC50 is 14.1 nM. This IC50 is about 3.6-fold higher than that of the compound before.

The compound `COc1c(Cl)cc(C(=O)NC[C@@H]2CCN(CC3CCCO3)C[C@H]2OC)c2c1OCCO2` (stereo partly shown) [compound 41] had an IC50 of 16.2 nM.

`CNCCN1CC[C@@H](CNC(=O)c2cc(Cl)c(Br)c3c2OCCCO3)[C@H](O)C1` [compound 42] had an IC50 of 27.5 nM.

As to `CNCCCCN1CC[C@@H](CNC(=O)c2cc(Cl)c(OC)c3c2OCCO3)[C@H](O)C1` [compound 43], the 50% inhibitory concentration (IC50) is 23.4 nM.

For `CNCCCN1CC[C@@H](CNC(=O)c2cc(Cl)c(OC)c3c2OCCO3)[C@H](O)C1` [compound 44], the IC50 was 28.8 nM.

Consider `CO[C@@H]1CN(CCCO)CC[C@H]1CNC(=O)c1cc(Cl)c(Br)c2c1OCCCO2` [compound 45], for which the IC50 is 7.41 nM.

Compound `CO[C@@H]1CN(CCC2OCCO2)CC[C@H]1CNC(=O)c1cc(Cl)c(Br)c2c1OCCCO2` [compound 46] had an IC50 of 6.03 nM.

The compound `CNCCN1CC[C@@H](CNC(=O)c2cc(Cl)c(Br)c3c2OCCCO3)[C@H](OC)C1` [compound 48] showed an IC50 of 57.5 nM. This IC50 lies about 9.5-fold higher than the previous one.

`CO[C@@H]1CNCC[C@H]1CNC(=O)c1cc(Cl)c(Cl)c2c1OCCCO2` [compound 49] gave an IC50 of 8.13 nM.

In the case of `CO[C@@H]1CN(CC2CCCO2)CC[C@H]1CNC(=O)c1cc(Cl)c(Br)c2c1OCCCO2` (stereo partly shown) [compound 50], the IC50 was 4.37 nM.

Consider `CO[C@@H]1CN(CCOCCO)CC[C@H]1CNC(=O)c1cc(Cl)c(Br)c2c1OCCCO2` [compound 51], for which the concentration for half-maximal inhibition (IC50) is 5.13 nM.

Consider `COc1c(Cl)cc(C(=O)NC[C@@H]2CCNC[C@H]2OC)c2c1OCCO2` [compound 52], for which the IC50 is 457 nM.

`COc1c(Cl)cc(C(=O)NC[C@@H]2CCN(CCCO)C[C@H]2OC)c2c1OCCO2` [compound 53] had an IC50 of 20 nM. This IC50 is about 23-fold lower than that of the compound before.

`COCCCN1CC[C@@H](CNC(=O)c2cc(Cl)c(Br)c3c2OCCCO3)[C@H](OC)C1` [compound 54] showed an IC50 of 4.9 nM.

Compound `COc1c(Cl)cc(C(=O)NC[C@@H]2CCN(CCOCCO)C[C@H]2OC)c2c1OCCO2` [compound 55] had an IC50 of 166 nM.

In turn, `CO[C@@H]1CN(CCCC#N)CC[C@H]1CNC(=O)c1cc(Cl)c(Cl)c2c1OCCCO2` [compound 56] had an IC50 of 3.89 nM. Against the preceding compound, the IC50 is about 43-fold lower.

`COc1c(Cl)cc(C(=O)NC[C@@H]2CCN(CCCO)C[C@H]2OC)c2c1OCCCO2` [compound 57] gave an IC50 of 36.3 nM.

`CCCCN1CC[C@@H](CNC(=O)c2cc(Cl)c(Br)c3c2OCCCO3)[C@H](OC)C1` [compound 58] showed an IC50 of 2.34 nM.

As to `COCCCN1CC[C@@H](CNC(=O)c2cc(Cl)c(Cl)c3c2OCCCO3)[C@H](OC)C1` [compound 59], the IC50 was 3.72 nM. This IC50 lies about 1.6-fold higher than the previous one.

`COc1c(Cl)cc(C(=O)NC[C@@H]2CCN(CCn3ccn(C(C)C)c3=O)C[C@H]2O)c2c1OCCO2` [compound 60] gave a 50% inhibitory concentration (IC50) of 35.5 nM. This IC50 is about 9.5-fold higher than that of the compound before.

In turn, `CNCCCCN1CC[C@@H](CNC(=O)c2cc(Cl)c(OC)c3c2OCCCO3)[C@H](OC)C1` [compound 61] gave an IC50 of 85.1 nM. This IC50 lies about 2.4-fold higher than the previous one.

As for `CNCCCN1CC[C@@H](CNC(=O)c2cc(Cl)c(OC)c3c2OCCCO3)[C@H](OC)C1` [compound 62], the IC50 is 490 nM.

For `CNCCCN1CC[C@@H](CNC(=O)c2cc(Cl)c(Br)c3c2OCCCO3)[C@H](OC)C1` [compound 63], the IC50 is 9.77 nM.

The compound `CNCCCCN1CC[C@@H](CNC(=O)c2cc(Cl)c(Br)c3c2OCCCO3)[C@H](O)C1` [compound 64] had a half-inhibitory concentration (IC50) of 1.55 nM.

Compound `CNCCCCN1CC[C@@H](CNC(=O)c2cc(Cl)c(Br)c3c2OCCCO3)[C@H](OC)C1` [compound 65] gave an IC50 of 4.47 nM.

Turning to `COc1c(Cl)cc(C(=O)NC[C@@H]2CCN(CC3OCCO3)C[C@H]2OC)c2c1OCCCO2` [compound 66], the IC50 is 132 nM.

`COCCCN1CC[C@@H](CNC(=O)c2cc(Cl)c(OC)c3c2OCCCO3)[C@H](OC)C1` [compound 67]: the 50% inhibitory concentration (IC50) was 22.4 nM.

With `COc1c(Cl)cc(C(=O)NC[C@@H]2CCN(CCOCCO)C[C@H]2OC)c2c1OCCCO2` [compound 68], the IC50 was 93.3 nM.

For `COc1c(Cl)cc(C(=O)NC[C@@H]2CCN(CCCC#N)C[C@H]2OC)c2c1OCCCO2` [compound 69], the IC50 is 79.4 nM.

Usually IC50 stands for the concentration at which inhibition is half-maximal. Higher therefore signals weaker potency in that assay.
